Laboratory results taken from patent US20100209519A1, “PHARMACEUTICAL COMPOSITION FOR INHALATION DELIVERY AND FABRICATION METHOD THEREOF” (NATIONAL TAIWAN UNIVERSITY, priority 2009, published 2010).
pIC50: −log10 of the molar value. Like-named read-outs stand apart in the source and are kept apart here.

Tested on: A549 cells
Assay: CDDP in vitro anticancer activity assay (MTT)
Assay type: cell-based, human
Experimental: A549 cells were placed in a 96-well culture plat at a density of 5×10^4 cells per well in 0.1 ml of growth medium and cultured for 24 hours. […] The percentage of cell viability is illustrated as the ratio of the absorbance of treated cells relative to the absorbance of non-treated cells.

[NH2][Pt]([NH2])([Cl])[Cl] [CDDP, Cisplatin]
pIC50 (48 hours, read-out: IC50 Value, 48 hours): 4.87
pIC50 (72 hours, read-out: IC50 Value, 72 hours): 5.28
